Legend:
[1] = target: recombinant human S1P1 receptor (Homo sapiens, UniProt P21453); assay: GTPγS assay to determine EC50 values; assay type: biochemical; details: 35S-GTPγS binding, membrane preparations of CHO cells expressing recombinant human S1P1 receptor, pH 7.4
Experimental: GTPγS binding assays are performed in 96 well microtiter plates (Nunc, 442587) in a final volume of 200 μl, using membrane preparations of CHO cells expressing recombinant human S1P1 receptor. Assay conditions are 20 mM Hepes (Fluka, 54461), 100 mM NaCl (Fluka, 71378), 5 mM MgCl2 (Fluka, 63064), 0.1% BSA (Calbiochem, 126609), 1 μM GDP (Sigma, G-7127), 2.5% DMSO (Fluka, 41644), […] ^35S-GTPγS (Amersham Biosciences, SJ1320). The pH is 7.4. Test compounds are dissolved and diluted in 100% DMSO and pre-incubated at room temperature for 30 min in 150 μl of the above assay buffer, in the absence of ^35S-GTPγS. After addition of 50 μl of ^35S-GTPγS, the assay is incubated for 1 h at rt. The assay is terminated by transfer of the reaction mixture to a Multiscreen plate (Millipore, MAHFC1H60) using a cell harvester from Packard Biosciences, and the plates are washed with ice-cold 10 mM Na2HPO4/NaH2PO4 (70%/30%), dried, sealed at the bottom and, after addition of 25 μl MicroScint20 (Packard Biosciences, order #6013621), sealed on the top. Membrane-bound ^35S-GTPγS is measured with a TopCount from Packard Biosciences.
EC50 is the concentration of agonist inducing 50% of the maximal specific ^35S-GTPγS binding. Specific binding is determined by subtracting non-specific binding from maximal binding. Maximal binding is the amount of cpm bound to the Multiscreen plate in the presence of 10 μM of S1P. Non-specific binding is the amount of binding in the absence of an agonist in the assay.
The EC50 values were determined according to the method described above: […]

circulating lymphocytes = assay: Assessment of in vivo efficacy: circulating lymphocytes after oral administration; set-up: unit not given here; details: 6 h after oral administration of 10 mg/kg to normotensive male Wistar rats, as compared to vehicle-treated group; mean±SEM
Experimental: The efficacy of the compounds of Formula (I) is assessed by measuring the circulating lymphocytes after oral administration of 3 to 30 mg/kg of a compound of Formula (I) to normotensive male Wistar rats. The animals are housed in climate-controlled conditions with a 12 h-light/dark cycle, and have free access to normal rat chow and drinking water. Blood is collected before and 3, 6 and 24 h after drug administration. Full blood is subjected to hematology using Advia Hematology system (Bayer Diagnostics, Züurich, Switzerland).
All data are presented as mean±SEM. Statistical analyses are performed by analysis of variance (ANOVA) using Statistica (StatSoft) and the Student-Newman-Keuls procedure for multiple comparisons. The null hypothesis is rejected when p<0.05.

Chain of recombinant human S1P1 receptor (P21453 whole entry): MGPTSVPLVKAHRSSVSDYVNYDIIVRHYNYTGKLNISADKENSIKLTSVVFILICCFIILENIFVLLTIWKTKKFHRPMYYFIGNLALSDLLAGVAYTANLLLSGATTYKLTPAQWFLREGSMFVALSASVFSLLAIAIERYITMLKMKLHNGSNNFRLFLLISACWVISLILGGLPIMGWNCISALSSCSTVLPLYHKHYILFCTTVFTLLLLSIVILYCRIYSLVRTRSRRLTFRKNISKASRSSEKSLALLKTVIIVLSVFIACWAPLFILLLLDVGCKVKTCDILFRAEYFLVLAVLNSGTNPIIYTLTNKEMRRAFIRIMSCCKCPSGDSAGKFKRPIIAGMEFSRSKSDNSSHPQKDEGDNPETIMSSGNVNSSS

EC50 [1] [nM] | Compound | Lymphocyte counts (circulating lymphocytes)
5.5 | CCc1cc(-c2noc(-c3cc(CC(C)C)c(C)s3)n2)cc(C)c1OCC(O)CNC(=O)CO (racemic) [Example 16, rac-N-(3-{2-Ethyl-4-[5-(4-isobutyl-5-methyl-thiophen-2-yl)-[1,2,4]oxadiazol-3-yl]-6-methyl-phenoxy}-2-hydroxy-propyl)-2-hydroxy-acetamide] | 
5.8 | CCCc1c(CC(C)C)csc1C(=O)/C=C/c1cc(C)c(O)c(C)c1 [Example 3, 3-(4-Hydroxy-3,5-dimethyl-phenyl)-1-(4-isobutyl-3-propyl-thiophen-2-yl)-propenone] | 
2.1 | Cc1cc(-c2noc(-c3sc(C)c(CC(C)C)c3C)n2)cc(C)c1OCC(O)CNC(=O)CO (racemic) [Example 50, rac-2-Hydroxy-N-(2-hydroxy-3-{4-[5-(4-isobutyl-3,5-dimethyl-thiophen-2-yl)-[1,2,4]oxadiazol-3-yl]-2,6-dimethyl-phenoxy}-propyl)acetamide] | −93 ± 1
7.5 | CCc1cc(-c2noc(-c3cc(CC(C)C)c(C)s3)n2)cc(C)c1CCC(=O)NCCO [Example 58, 3-{2-ethyl-4-[5-(4-isobutyl-5-methyl-thiophen-2-yl)-[1,2,4]oxadiazol-3-yl]-6-methyl-phenyl}-N-(2-hydroxy-ethyl)-propionamide] | 
7.5 | CCCc1c(CC(C)C)csc1C(=O)CCc1cc(C)c(OC[C@@H](O)CO)c(C)c1 [Example 8, 3-[4-((S)-2,3-dihydroxy-propoxy)-3,5-dimethyl-phenyl]-1-(4-isobutyl-3-propyl-thiophen-2-yl)-propan-1-one] | 
8.4 | Cc1cc(CCC(=O)c2scc(CC(C)C)c2CC(C)C)cc(C)c1O [Example 7, 1-(3,4-diisobutyl-thiophen-2-yl)-3-(4-hydroxy-3,5-dimethyl-phenyl)-propan-1-one] | 
1.1 | Cc1cc(-c2noc(-c3scc(CC(C)C)c3C)n2)cc(C)c1OC[C@@H](O)CNC(=O)CO [Example 70, (S)-2-Hydroxy-N-(2-hydroxy-3-{4-[5-(4-isobutyl-3-methyl-thiophen-2-yl)-[1,2,4]oxa-diazol-3-yl]-2,6-dimethyl-phenoxy}-propyl)-acetamide] | 
 | COc1cc(OCC(O)CNC(=O)CO)ccc1-c1noc(-c2cc(CC(C)C)c(C)s2)n1 (stereo not drawn) [Example 46, 2-hydroxy-N-(2-hydroxy-3-{4-[5-(4-isobutyl-5-methyl-thiophen-2-yl)-[1,2,4]oxadiazol-3-yl]-3-methoxy-phenoxy}-propyl)-acetamide] | −77 ± 3
 | CCc1cc(-c2nnc(-c3cc(CC(C)C)c(C)s3)o2)cc(C)c1OC[C@@H](O)CNC(=O)CO [Example 64, N—((S)-3-{2-ethyl-4-[5-(4-isobutyl-5-methyl-thiophen-2-yl)-[1,3,4]oxadiazol-2-yl]-6-methyl-phenoxy}-2-hydroxy-propyl)-2-hydroxy-acetamide] | −66 ± 1
0.4 | CCc1cc(-c2nnc(-c3sc(C)c(CC(C)C)c3C)o2)cc(C)c1OC[C@@H](O)CNC(=O)CO [Example 109, (S)—N-(3-{2-Ethyl-4-[5-(4-isobutyl-3,5-dimethyl-thiophen-2-yl)-[1,3,4]oxadiazol-2-yl]-6-methyl-phenoxy}-2-hydroxy-propyl)-2-hydroxy-acetamide] | 
 | Cc1cc(-c2noc(-c3scc(CC(C)C)c3C)n2)cc(C)c1OCC(O)CNC(=O)CO (racemic) [Example 23, rac-2-Hydroxy-N-(2-hydroxy-3-{4-[5-(4-isobutyl-3-methyl-thiophen-2-yl)-[1,2,4]oxadiazol-3-yl]-2,6-dimethyl-phenoxy}-propyl)acetamide] | −73 ± 2
